Here are results for one molecule from patent publication US8198317B2, “Methylenedioxy phenolic compounds and their use to treat disease” (The Ohio State University Research Foundation, priority 2008, dated 2012).

Entries after “also recorded” stand apart in the source; their conditions may differ.

Common to all, as to type: in vivo, rabbit
Experiment [1] deals with New Zealand White rabbits. In words: MRI assessment of atherosclerosis in balloon denuded NZW rabbits. The following applies: high fat diet, 100 mg/kg/day, 12 weeks. The procedure: (§1) Animal Model: 15 male New Zealand White rabbits (Charles River, Mass.) were fed with high fat diet (HFD) (Harlan Teklad rabbit diet with 0.5% cholesterol, TD 87251). After 4 weeks of high fat diet, rabbits were randomized into three different treatment groups, normal control (n=5), lipoic acid (100 mg/kg/day) (n=5), INV 70-65 (100 mg/kg/day) (n=5). These drugs were administered to the animals via their chow by mixing the drugs with the high fat diet. A fixed amount of chow and drugs admixed in the chow were fed to all animals every day after carefully calculating food intake in each rabbit. Drugs were dissolved in 100% ethanol and sprayed onto the diet and kept under vacuum to let ethanol evaporate overnight. Two (2) weeks after drug or control admixed HFD, all rabbits underwent aortic balloon denudation surgeries followed by 12 weeks of continued administration of drug or controls admixed with HFD. FIG. 29 provides an outline of the experimental design.
MRI experiments were conducted at two time points: 1 week and 12 weeks after the balloon denudation procedure (FIG. 29). […] MR images were analyzed using a Siemens Leonardo Workstation (Siemens Healthcare Inc. Germany).
To assess the different rates of atherosclerosis plaque progression for each rabbit group, the aortic wall was identified in the pre-contrast images at both MRI time points. […] To account for the variable number of slices, for each rabbit a normalized aortic wall volume was calculated.
To assess plaque neovasculature progression in the different treatment groups, only the 12 weeks post balloon denudation MR images were used. […] The signal to noise ratio (SNR) for each slice was calculated as the mean signal obtained from the vessel wall divided by the standard deviation of the noise from a region outside the body. A ratio of the SNR enhancement for each rabbit was obtained by dividing the post and pre contrast calculated SNRs.

In experiment [2] the test system is New Zealand White rabbits. Description: Plasma lipid profile in NZW rabbits. The following applies: end of treatment. On the procedure: as §1
A lipid profile (Cholesterol, Triglycerides, direct HDL, LDL and VLDL) was performed after a total of 12 weeks of treatment with the drugs. One (1) ml of blood from the ear lobe vein was placed into tubes containing K EDTA at the beginning of the high cholesterol diet and again at the time of sacrifice. All values were expressed as mean±SD. The bar graph of each group both at the baseline and the end point measurement is presented. The statistical analysis was done with one way ANOVA.

In experiment [3] the test system is New Zealand White rabbits. Description: Oil Red O staining of abdominal aorta of NZW rabbits. Particulars: NZW abdominal aorta. On the procedure: as §1
Hypercholesterolemia and oxidative stress play an important role in the development of atherosclerosis. The rabbits were sacrificed and abdominal aortas were fixed in 4% PFA (paraformaldehyde). The lipid deposition in the aortic wall was then visualized by oil red staining.

Experiment [4] concerns thoracic aorta of New Zealand White rabbits. Description: Myograph experiments on thoracic aortic rings of NZW rabbits. The following applies: NZW thoracic aorta, end of 12 weeks. The procedure: as §1
Rabbits were euthanized by injection of lethal doses of pentobarbital. The thoracic aortas were collected for the myograph studies. Two (2) mm thoracic aortic rings were suspended in individual organ chambers filled with physiological salt solution buffer (sodium chloride, 130 mEq/L; potassium chloride, 4.7 mEq/L; calcium dichloride, 1.6 mEq/L; magnesium sulfate, 1.17 mEq/L; potassium diphosphate, 1.18 mEq/L; sodium bicarbonate, 14.9 mEq/L; EDTA, 0.026 mEq/L; and glucose, 99.1 mg/dL [5.5 mmol/L]; pH, 7.4), aerated continuously with 5% carbon dioxide in oxygen at 37° C. Vessels were allowed to equilibrate for at least 1 hour at a resting tension of 30 mN before being subjected to graded doses of agonists. The vasoconstrictor agonist phenylephrine (PE) was used and responses were expressed as a percentage of the peak response to 120 mEq/L of potassium chloride. The vessels subjected to PE were washed thoroughly and allowed to equilibrate for 1 hour before beginning experiments with acetylcholine or sodium nitroprusside (SNP). […] Results for the vasodilators were expressed as a percentage of pre-contraction by PE (0.1 μM).

For the molecule `O=C(O)CCCC[C@@H]1CCSS1` (racemic) [Lipoic Acid, lipoic acid, reference compound], the “plaque burden by MRI” value in experiment [1] is “no difference”. Besides, in experiment [2], the HDL levels result is recorded as “increased moderately”, the “LDL level compared to normal control” value is on record as “moderate decreases; also recorded: lower”, the “TC level compared to normal control” value is reported as “moderate decreases” and the “VLDL levels compared to controls” value is “no change”. The “triglyceride (TG) levels compared to controls” value in experiment [2] was “significantly decreased”. In experiment [3], the “lipid content in the plaque area (Oil Red O) compared to the control group” value is on record as “reduction”. Also, in experiment [4], the “Ach LogEC50” value is reported as −6.47 ± 0.18 M, the “PE LogEC50” value is reported as −6.48 ± 0.09 M and the “SNP-1 LogEC50” value is listed as −6.75 ± 0.21 M. The “PE Maximum Effect” value in experiment [4] (% of peak response to KCl) came out at 154.0 ± 7.24%. Also, in experiment [4] (% of pre-contraction by PE), the “Ach Maximum Effect” value is −33.00 ± 2.94 %, the “Insulin Maximum Effect” value is −107.8 ± 7.68% and the “SNP-1 Maximum Effect” value is recorded as −89.04 ± 7.67%.
